Reference: patent US12139520B2 (priority 2020, dated 2024)
Bridge positions count the residues as written; N and C are the ends. Square brackets hold non-standard residues; d marks the D form. Peptide text beside a SMILES is read from it. Hyp = O=C(O)[C@@H]1C[C@@H](O)CN1

Columns and labels:
[1] = Physical stability of peptide analogues (Thioflavin T fibrillation); type: physicochemical; settings: maximum ThT signal normalized between hAMY maximum and buffer background; 40° C., shaking, four days; pH 7 per table title
Procedure, shortened: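 Samples are stressed at 40 °C for four days, being shaken at 700 rpm before each 10-min fluorescence reading of 4 μM Thioflavin T. Buffers were pH 4 acetate or pH 7 phosphate. Reported values are smoothed maximum ThT signals as a percentage of the hAMY-to-background range.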

[2] = target: T1, hAMY3 receptor (Homo sapiens, UniProt O60896+P30988); experiment: cAMP assay for in vitro receptor activation, hAMY3-R; type: cell-based; settings: cAMP assay, hAMY3 receptor; read-out: hAMY3R EC50
T1 sequence (P30988 25-474): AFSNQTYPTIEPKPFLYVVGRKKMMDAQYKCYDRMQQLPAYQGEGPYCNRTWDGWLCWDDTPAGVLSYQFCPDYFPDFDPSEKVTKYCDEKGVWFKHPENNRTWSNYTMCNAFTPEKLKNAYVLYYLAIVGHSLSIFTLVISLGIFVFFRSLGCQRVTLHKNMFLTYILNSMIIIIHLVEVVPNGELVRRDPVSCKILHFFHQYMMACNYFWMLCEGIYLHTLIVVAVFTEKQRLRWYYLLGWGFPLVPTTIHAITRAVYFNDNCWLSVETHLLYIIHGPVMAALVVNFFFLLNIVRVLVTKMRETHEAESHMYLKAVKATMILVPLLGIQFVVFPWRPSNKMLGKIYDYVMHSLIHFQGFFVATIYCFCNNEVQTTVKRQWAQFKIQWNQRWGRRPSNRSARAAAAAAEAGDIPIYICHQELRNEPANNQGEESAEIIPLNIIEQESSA
T1 sequence (O60896 24-148 partner): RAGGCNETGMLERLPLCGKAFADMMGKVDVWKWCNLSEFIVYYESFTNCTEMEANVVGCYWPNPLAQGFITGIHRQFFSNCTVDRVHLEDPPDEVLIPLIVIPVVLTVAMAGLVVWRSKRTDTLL
Procedure, shortened: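 Read-out is TR-FRET cAMP signal, recorded one hour after reagent addition, following 30 min room-temperature stimulation of stable hAMY3 cells with graded compound doses in casein/IBMX (0.5 mM) buffer.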

[3] = target: hAM1 receptor (Homo sapiens, UniProt O60895+Q16602); experiment: cAMP assay for in vitro receptor activation, hAM1-R; type: cell-based; settings: cAMP assay, hAM1 receptor; read-out: hAM1R EC50
Sequence of hAM1 receptor (Q16602 23-461): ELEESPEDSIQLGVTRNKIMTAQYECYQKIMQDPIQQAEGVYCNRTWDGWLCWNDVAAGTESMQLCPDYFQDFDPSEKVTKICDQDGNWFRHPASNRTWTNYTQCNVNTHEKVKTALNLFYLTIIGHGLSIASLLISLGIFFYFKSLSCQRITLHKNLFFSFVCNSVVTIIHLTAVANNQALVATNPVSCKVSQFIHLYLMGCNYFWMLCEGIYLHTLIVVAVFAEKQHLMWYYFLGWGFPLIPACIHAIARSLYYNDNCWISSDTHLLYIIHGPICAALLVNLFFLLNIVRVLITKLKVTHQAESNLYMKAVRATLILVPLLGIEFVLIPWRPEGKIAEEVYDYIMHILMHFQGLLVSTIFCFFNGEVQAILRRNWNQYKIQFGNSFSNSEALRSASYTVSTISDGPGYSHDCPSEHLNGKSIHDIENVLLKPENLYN
Sequence of hAM1 receptor (O60895 43-175 partner): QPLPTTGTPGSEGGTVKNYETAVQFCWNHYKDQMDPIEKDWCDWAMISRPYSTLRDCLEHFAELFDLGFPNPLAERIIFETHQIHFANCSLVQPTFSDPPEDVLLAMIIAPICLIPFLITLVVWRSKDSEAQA
Procedure, shortened: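 Stable hAM1 cells (monoclonal) plated 8000/well; buffer DPBS, 0.05% casein, 0.5 mM IBMX; cAMP read-out.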

Max ThT signal (%) [1] [%]	EC50 [2] [nM]	EC50 [3] [nM]	SMILES
14.500	0.014	> 5000	CC[C@H](C)[C@H](NC(=O)[C@H](C)NC(=O)[C@H](Cc1c[nH]cn1)NC(=O)[C@H](C)NC(=O)[C@H](CC(C)C)NC(=O)[C@H](Cc1c[nH]c2ccccc12)NC(=O)[C@H](CCC(N)=O)NC(=O)[C@@H](NC(=O)[C@@H](NC(=O)[C@@H]1CSSC[C@H](NC(=O)[C@@H](N)CCCCN)C(=O)N[C@@H](CC(N)=O)C(=O)N[C@@H]([C@@H](C)O)C(=O)N[C@@H](C)C(=O)N[C@@H]([C@@H](C)O)C(=O)N1)[C@@H](C)O)C(C)C)C(=O)N[C@@H](Cc1ccc(O)cc1)C(=O)N[C@@H](CCC(N)=O)C(=O)N[C@@H](Cc1ccccc1)C(=O)N[C@H](C(=O)N[C@@H](CC(=O)O)C(=O)N[C@@H](CCCCN)C(=O)N[C@@H](CC(=O)O)C(=O)N[C@@H](CCCCN)C(=O)N[C@@H](CC(=O)O)C(=O)N[C@@H](CC(N)=O)C(=O)N[C@H](C(=O)N[C@@H](C)C(=O)N1CCC[C@H]1C(=O)N1CCC[C@H]1C(=O)N[C@H](C(=O)N[C@@H](CC(N)=O)C(=O)N[C@H](C(=O)NCC(=O)N[C@@H](CO)C(=O)N[C@@H](CC(N)=O)C(=O)NCC(=O)N1C[C@H](O)C[C@H]1C(N)=O)C(C)C)[C@@H](C)O)C(C)C)[C@@H](C)O [compound 308] (H-KCNTATCTVQWLAHAIYQFTDKDKDNVAPPTNVGSNG[Hyp]-NH2; disulfide 2-7; N-terminus assumed)
1.500	0.13	> 5000	CC[C@H](C)[C@H](NC(=O)[C@H](CCC(N)=O)NC(=O)[C@H](Cc1c[nH]cn1)NC(=O)[C@H](C)NC(=O)[C@H](CC(C)C)NC(=O)[C@H](CCCNC(=N)N)NC(=O)[C@H](CCC(N)=O)NC(=O)[C@@H](NC(=O)[C@@H](NC(=O)[C@@H]1CSSC[C@H](NC(=O)CN)C(=O)N[C@@H](CCCNC(=N)N)C(=O)N[C@@H]([C@@H](C)O)C(=O)NCC(=O)N[C@@H]([C@@H](C)O)C(=O)N1)[C@@H](C)O)C(C)C)C(=O)N[C@@H](Cc1ccc(O)cc1)C(=O)N[C@@H](CCC(N)=O)C(=O)N[C@@H](Cc1ccccc1)C(=O)N[C@H](C(=O)N[C@@H](CC(=O)O)C(=O)N[C@@H](CCCCN)C(=O)N[C@@H](Cc1ccccc1)C(=O)N[C@@H](CCCCN)C(=O)N[C@@H](CC(=O)O)C(=O)N[C@@H](CC(N)=O)C(=O)N[C@H](C(=O)N[C@@H](C)C(=O)N1CCC[C@H]1C(=O)N[C@@H](CCCNC(=N)N)C(=O)N[C@@H](CO)C(=O)N[C@@H](CCCCN)C(=O)N[C@H](C(=O)N[C@@H](CO)C(=O)N1CCC[C@H]1C(=O)N[C@@H](CCC(N)=O)C(=O)N[C@@H](CCCCN)C(=O)N1C[C@H](O)C[C@H]1C(N)=O)[C@@H](C)CC)C(C)C)[C@@H](C)O [compound 206] (H-GCRTGTCTVQRLAHQIYQFTDKFKDNVAPRSKISPQK[Hyp]-NH2; disulfide 2-7; N-terminus assumed)
10.100	0.025	> 5000	CC[C@H](C)[C@H](NC(=O)[C@H](CCC(N)=O)NC(=O)[C@H](Cc1c[nH]cn1)NC(=O)[C@H](C)NC(=O)[C@H](CC(C)C)NC(=O)[C@H](Cc1c[nH]c2ccccc12)NC(=O)[C@H](CCC(N)=O)NC(=O)[C@@H](NC(=O)[C@@H](NC(=O)[C@@H]1CSSC[C@H](NC(=O)[C@@H](N)CCCCN)C(=O)N[C@@H](CC(N)=O)C(=O)N[C@@H]([C@@H](C)O)C(=O)N[C@@H](C)C(=O)N[C@@H]([C@@H](C)O)C(=O)N1)[C@@H](C)O)C(C)C)C(=O)N[C@@H](Cc1ccc(O)cc1)C(=O)N[C@@H](CCC(N)=O)C(=O)N[C@@H](Cc1ccccc1)C(=O)N[C@H](C(=O)N[C@@H](CC(=O)O)C(=O)N[C@@H](CCCCN)C(=O)N[C@@H](CC(=O)O)C(=O)N[C@@H](CCCCN)C(=O)N[C@@H](CC(=O)O)C(=O)N[C@@H](CC(N)=O)C(=O)N[C@H](C(=O)N[C@@H](C)C(=O)N[C@@H](C)C(=O)N1CCC[C@H]1C(=O)N[C@H](C(=O)N[C@@H](CC(N)=O)C(=O)N[C@H](C(=O)NCC(=O)N[C@@H](CO)C(=O)N[C@@H](CC(N)=O)C(=O)NCC(=O)N1C[C@H](O)C[C@H]1C(N)=O)C(C)C)[C@@H](C)O)C(C)C)[C@@H](C)O [compound 325] (H-KCNTATCTVQWLAHQIYQFTDKDKDNVAAPTNVGSNG[Hyp]-NH2; disulfide 2-7; N-terminus assumed)
2.100	0.007	> 5000	CC[C@H](C)[C@H](NC(=O)[C@H](CCC(N)=O)NC(=O)[C@H](Cc1c[nH]cn1)NC(=O)[C@H](C)NC(=O)[C@H](CC(C)C)NC(=O)[C@H](Cc1c[nH]c2ccccc12)NC(=O)[C@H](CCC(N)=O)NC(=O)[C@@H](NC(=O)[C@@H](NC(=O)[C@@H]1CSSC[C@H](NC(=O)CN)C(=O)N[C@@H](CCCNC(=N)N)C(=O)N[C@@H]([C@@H](C)O)C(=O)NCC(=O)N[C@@H]([C@@H](C)O)C(=O)N1)[C@@H](C)O)C(C)C)C(=O)N[C@@H](Cc1ccc(O)cc1)C(=O)N[C@@H](CCC(N)=O)C(=O)N[C@@H](Cc1ccccc1)C(=O)N[C@H](C(=O)N[C@@H](CC(=O)O)C(=O)N[C@@H](CCCCN)C(=O)N[C@@H](CC(=O)O)C(=O)N[C@@H](CCCCN)C(=O)N[C@@H](CC(=O)O)C(=O)N[C@@H](CC(N)=O)C(=O)N[C@H](C(=O)N[C@@H](C)C(=O)N1CCC[C@H]1C(=O)N[C@@H](CCCNC(=N)N)C(=O)N[C@H](C(=O)N[C@@H](CC(N)=O)C(=O)N[C@H](C(=O)NCC(=O)N1CCC[C@H]1C(=O)N[C@@H](CC(N)=O)C(=O)NCC(=O)N[C@@H](Cc1ccc(O)cc1)C(N)=O)C(C)C)[C@@H](C)O)C(C)C)[C@@H](C)O [compound 332] (H-GCRTGTCTVQWLAHQIYQFTDKDKDNVAPRTNVGPNGY-NH2; disulfide 2-7; N-terminus assumed)
20.500	0.029	> 5000	CC[C@H](C)[C@H](NC(=O)[C@H](CC(N)=O)NC(=O)[C@@H](NC(=O)[C@H](CCCNC(=N)N)NC(=O)[C@@H]1CCCN1C(=O)[C@H](C)NC(=O)[C@@H](NC(=O)[C@H](CC(N)=O)NC(=O)[C@H](CC(=O)O)NC(=O)[C@H](CCCCN)NC(=O)[C@H](CC(=O)O)NC(=O)[C@H](CCCCN)NC(=O)[C@H](CC(=O)O)NC(=O)[C@@H](NC(=O)[C@H](Cc1ccccc1)NC(=O)[C@H](CCC(N)=O)NC(=O)[C@H](Cc1ccc(O)cc1)NC(=O)[C@@H](NC(=O)[C@H](CCC(N)=O)NC(=O)[C@H](Cc1c[nH]cn1)NC(=O)[C@H](C)NC(=O)[C@H](CC(C)C)NC(=O)[C@H](Cc1c[nH]c2ccccc12)NC(=O)[C@H](CCC(N)=O)NC(=O)[C@@H](NC(=O)[C@@H](NC(=O)[C@@H]1CSSC[C@H](NC(=O)CN)C(=O)N[C@@H](CCCNC(=N)N)C(=O)N[C@@H]([C@@H](C)O)C(=O)NCC(=O)N[C@@H]([C@@H](C)O)C(=O)N1)[C@@H](C)O)C(C)C)[C@@H](C)CC)[C@@H](C)O)C(C)C)[C@@H](C)O)C(=O)NCC(=O)N1CCC[C@H]1C(=O)N[C@@H](CCC(N)=O)C(=O)NCC(=O)N1C[C@H](O)C[C@H]1C(N)=O [compound 341] (H-GCRTGTCTVQWLAHQIYQFTDKDKDNVAPRTNIGPQG[Hyp]-NH2; disulfide 2-7; N-terminus assumed)
0.300	0.235	4250	CC[C@H](C)[C@H](NC(=O)[C@H](CCC(N)=O)NC(=O)[C@H](Cc1c[nH]cn1)NC(=O)[C@H](C)NC(=O)[C@H](CC(C)C)NC(=O)[C@H](CCCNC(=N)N)NC(=O)[C@H](CCC(N)=O)NC(=O)[C@@H](NC(=O)[C@@H](NC(=O)[C@@H]1CSSC[C@H](NC(=O)CN)C(=O)N[C@@H](CCCNC(=N)N)C(=O)N[C@@H]([C@@H](C)O)C(=O)NCC(=O)N[C@@H]([C@@H](C)O)C(=O)N1)[C@@H](C)O)C(C)C)C(=O)N[C@@H](Cc1ccc(O)cc1)C(=O)N[C@@H](CCC(N)=O)C(=O)N[C@@H](Cc1ccccc1)C(=O)N[C@H](C(=O)N[C@@H](CC(N)=O)C(=O)N[C@@H](CCCCN)C(=O)N[C@@H](CC(=O)O)C(=O)N[C@@H](CCCCN)C(=O)N[C@@H](CC(=O)O)C(=O)N[C@@H](CC(N)=O)C(=O)N[C@H](C(=O)N[C@@H](C)C(=O)N1CCC[C@H]1C(=O)N[C@@H](CCCNC(=N)N)C(=O)N[C@@H](CO)C(=O)N[C@@H](CCCCN)C(=O)N[C@H](C(=O)N[C@@H](CO)C(=O)N1CCC[C@H]1C(=O)N[C@@H](CCC(N)=O)C(=O)N[C@H](C(=O)N[C@@H](CCSC)C(N)=O)[C@@H](C)O)[C@@H](C)CC)C(C)C)[C@@H](C)O [compound 237] (H-GCRTGTCTVQRLAHQIYQFTNKDKDNVAPRSKISPQTM-NH2; disulfide 2-7)
